According to ChEMBL document CHEMBL1201862, “PubChem BioAssay data set” (2004):
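Protocol summary: plate cells (96-well), add compound at 5 concentrations, incubate 48 h, interpolate endpoints linearly. GI50 marks 50% less growth.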 Active and inactive are the calls of the source. No stated cut-off is given here; in the data, active = GI50 up to about 1.1 µM and inactive = higher.

What was measured:
Test in all cases: NCI tumour cell line growth inhibition, 48 h
A549 = tested on: A549
CCRF-CEM = tested on: CCRF-CEM
HOP-62 = tested on: HOP-62
HT-29 = tested on: HT-29
LOX IMVI = tested on: LOX IMVI
MDA-MB-435 = tested on: MDA-MB-435
NCI/ADR-RES = tested on: NCI/ADR-RES
OVCAR-3 = tested on: OVCAR-3
OVCAR-8 = tested on: OVCAR-8
SK-MEL-28 = tested on: SK-MEL-28
SK-MEL-2 = tested on: SK-MEL-2
SK-MEL-5 = tested on: SK-MEL-5
SK-OV-3 = tested on: SK-OV-3
SR = tested on: SR
T47D = tested on: T47D
U-251 = tested on: U-251
UACC-257 = tested on: UACC-257
UACC-62 = tested on: UACC-62
SNB-75 = tested on: SNB-75

SMILES	GI50 (A549)	GI50 (CCRF-CEM)	GI50 (HOP-62)	GI50 (HT-29)	GI50 (LOX IMVI)	GI50 (MDA-MB-435)	GI50 (NCI/ADR-RES)	GI50 (OVCAR-3)	GI50 (OVCAR-8)	GI50 (SK-MEL-28)	GI50 (SK-MEL-2)	GI50 (SK-MEL-5)	GI50 (SK-OV-3)	GI50 (SR)	GI50 (T47D)	GI50 (U-251)	GI50 (UACC-257)	GI50 (UACC-62)	GI50 (SNB-75)
O=C(CNC(c1ccccc1)(c1ccccc1)c1ccccc1)NC1CCCCC1NC(=O)CNC(c1ccccc1)(c1ccccc1)c1ccccc1 (stereo not given)	> 100 µM (inactive)	> 100 µM (inactive)	27.8 µM (inactive)	> 100 µM (inactive)	> 100 µM (inactive)	> 100 µM (inactive)	> 100 µM (inactive)	> 100 µM (inactive)	> 100 µM (inactive)	> 100 µM (inactive)	> 100 µM (inactive)	> 100 µM (inactive)	> 100 µM (inactive)	> 100 µM (inactive)	> 100 µM (inactive)	43 µM (inactive)	> 100 µM (inactive)	> 100 µM (inactive)	–
COc1cc(-c2c(C#N)c(N)c(C#N)c3c2COc2ccccc2-3)cc(OC)c1OC	> 100 µM (inactive)	> 100 µM (inactive)	7.5 µM (inactive)	> 30.6 µM (inactive)	39.2 µM (inactive)	> 100 µM (inactive)	42.5 µM (inactive)	> 42.8 µM (inactive)	28.6 µM (inactive)	> 100 µM (inactive)	22.6 µM (inactive)	> 86.3 µM (inactive)	14.6 µM (inactive)	> 74 µM (inactive)	> 46.9 µM (inactive)	12.4 µM (inactive)	> 100 µM (inactive)	30.2 µM (inactive)	–
O=C1C(Cl)C(c2cccc(Br)c2)N1c1c(O)c(Cl)cc(Br)c1Cl (stereo not given)	17.3 µM (inactive)	14.6 µM (inactive)	13.8 µM (inactive)	5.81 µM (inactive)	14.5 µM (inactive)	15 µM (inactive)	23.8 µM (inactive)	16.1 µM (inactive)	30.3 µM (inactive)	–	7.08 µM (inactive)	14.2 µM (inactive)	18.3 µM (inactive)	20.4 µM (inactive)	15.2 µM (inactive)	12.7 µM (inactive)	10.8 µM (inactive)	14.5 µM (inactive)	–
CN(C)CCNC(=O)c1cc(-c2nccn2C)nc2ccccc12	> 100 µM (inactive)	> 100 µM (inactive)	50.8 µM (inactive)	> 100 µM (inactive)	> 100 µM (inactive)	> 100 µM (inactive)	> 100 µM (inactive)	–	> 100 µM (inactive)	–	> 100 µM (inactive)	> 100 µM (inactive)	–	> 100 µM (inactive)	> 100 µM (inactive)	> 100 µM (inactive)	> 100 µM (inactive)	> 100 µM (inactive)	> 100 µM (inactive)
CC(C)(C)c1ccc(O)c(C(O)c2ccccn2)c1 (stereo not given)	98.2 µM (inactive)	38.2 µM (inactive)	> 100 µM (inactive)	> 100 µM (inactive)	54.8 µM (inactive)	> 100 µM (inactive)	48 µM (inactive)	> 100 µM (inactive)	> 100 µM (inactive)	> 100 µM (inactive)	–	–	–	70.1 µM (inactive)	34.9 µM (inactive)	46.1 µM (inactive)	–	2.24 µM (inactive)	> 100 µM (inactive)
O=C(Nc1ccc(F)cc1)c1cc2ccc(O)cc2o/c1=N\c1ccccc1F	–	17 µM (inactive)	11.5 µM (inactive)	> 100 µM (inactive)	19.4 µM (inactive)	27.9 µM (inactive)	15.6 µM (inactive)	27.9 µM (inactive)	13.7 µM (inactive)	32.1 µM (inactive)	29.3 µM (inactive)	10.7 µM (inactive)	12 µM (inactive)	36.1 µM (inactive)	14.8 µM (inactive)	19.9 µM (inactive)	27.6 µM (inactive)	22.6 µM (inactive)	–
O=C(CC(Cl)(Cl)C(Cl)(Cl)Cl)c1ccccc1	17.8 µM (inactive)	–	4.21 µM (inactive)	2.06 µM (inactive)	1.83 µM (inactive)	2.23 µM (inactive)	5.26 µM (inactive)	1.85 µM (inactive)	2.59 µM (inactive)	2.2 µM (inactive)	10.1 µM (inactive)	12 µM (inactive)	18.4 µM (inactive)	2.04 µM (inactive)	2.73 µM (inactive)	4.7 µM (inactive)	1.78 µM (inactive)	2.74 µM (inactive)	15.3 µM (inactive)
CN(C)Cc1cc(C(=O)/C=C/c2ccccc2Cl)cc(CN(C)C)c1O	14.9 µM (inactive)	3.4 µM (inactive)	8.15 µM (inactive)	3.13 µM (inactive)	3.33 µM (inactive)	13.5 µM (inactive)	12.8 µM (inactive)	7.93 µM (inactive)	10.1 µM (inactive)	14.7 µM (inactive)	–	11.8 µM (inactive)	–	5.6 µM (inactive)	> 10 µM (inactive)	13.8 µM (inactive)	15.4 µM (inactive)	–	5.51 µM (inactive)
CCOC(=O)C(Cc1ccc(N(CCCl)CCCl)cc1)NC(=O)C(Cc1ccccc1)NC=O (stereo not given)	0.431 µM (active)	0.0526 µM (active)	0.274 µM (active)	0.142 µM (active)	0.0713 µM (active)	0.263 µM (active)	0.338 µM (active)	0.147 µM (active)	0.258 µM (active)	–	0.161 µM (active)	0.219 µM (active)	0.475 µM (active)	0.00811 µM (active)	0.092 µM (active)	0.205 µM (active)	0.24 µM (active)	0.094 µM (active)	–
CC12Nc3ccccc3N1C(=O)c1ccccc12 (stereo not given)	> 100 µM (inactive)	> 100 µM (inactive)	> 100 µM (inactive)	> 100 µM (inactive)	> 100 µM (inactive)	> 100 µM (inactive)	> 100 µM (inactive)	> 100 µM (inactive)	> 100 µM (inactive)	> 100 µM (inactive)	> 100 µM (inactive)	> 100 µM (inactive)	> 100 µM (inactive)	> 100 µM (inactive)	> 100 µM (inactive)	> 100 µM (inactive)	> 100 µM (inactive)	> 100 µM (inactive)	–
S=C1CC(c2ccccc2)Sc2cc(Cl)ccc2N1 (stereo not given)	5.68 µM (inactive)	1.36 µM (inactive)	5.61 µM (inactive)	4.4 µM (inactive)	4.09 µM (inactive)	0.723 µM (active)	3.52 µM (inactive)	2.49 µM (inactive)	13.2 µM (inactive)	8.73 µM (inactive)	–	5.64 µM (inactive)	7.35 µM (inactive)	3.44 µM (inactive)	21.6 µM (inactive)	4.26 µM (inactive)	6.04 µM (inactive)	5.56 µM (inactive)	5.24 µM (inactive)
COc1ccc(/C=C/c2ccnc3ccccc23)cc1OC	15.1 µM (inactive)	13.2 µM (inactive)	15.1 µM (inactive)	12.4 µM (inactive)	10 µM (inactive)	15.1 µM (inactive)	14 µM (inactive)	12.5 µM (inactive)	–	17.5 µM (inactive)	19.4 µM (inactive)	14.8 µM (inactive)	27.7 µM (inactive)	25.5 µM (inactive)	11.7 µM (inactive)	46.9 µM (inactive)	21.2 µM (inactive)	14.9 µM (inactive)	–
